For 33 compounds, IC50 and Ki results are on record in patent publication US20250270172A1, “Pyrimidine Derivatives As Modulators of the 5-HT2A Serotonin Receptor Useful For The Treatment of Disorders Related Thereto” (Arena Pharmaceuticals, Inc., priority 2020, published 2025).

One may read the IC50 as the point on the concentration scale where inhibition reaches its midpoint. A low value points to greater potency in that assay. The term Ki denotes the equilibrium dissociation constant of an inhibitor or competing ligand from its target.

The target of the first assay is T1, 5-HT2A (Homo sapiens (Human), UniProt P28223). Briefly: HTRF IP-One antagonist assay, 5-HT2A.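 Note: clonal line with low receptor density (about 50–70 fmol/mg), 10-point dose-response from 10 µM in 5-fold steps, HTRF detection after 1 hr, triplicate points.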 Conditions: HEK293 cells stably expressing receptor, inositol phosphate accumulation, 80 nM 5-HT in Assay Buffer. The format is cell-based.
T1 sequence (P28223 whole entry): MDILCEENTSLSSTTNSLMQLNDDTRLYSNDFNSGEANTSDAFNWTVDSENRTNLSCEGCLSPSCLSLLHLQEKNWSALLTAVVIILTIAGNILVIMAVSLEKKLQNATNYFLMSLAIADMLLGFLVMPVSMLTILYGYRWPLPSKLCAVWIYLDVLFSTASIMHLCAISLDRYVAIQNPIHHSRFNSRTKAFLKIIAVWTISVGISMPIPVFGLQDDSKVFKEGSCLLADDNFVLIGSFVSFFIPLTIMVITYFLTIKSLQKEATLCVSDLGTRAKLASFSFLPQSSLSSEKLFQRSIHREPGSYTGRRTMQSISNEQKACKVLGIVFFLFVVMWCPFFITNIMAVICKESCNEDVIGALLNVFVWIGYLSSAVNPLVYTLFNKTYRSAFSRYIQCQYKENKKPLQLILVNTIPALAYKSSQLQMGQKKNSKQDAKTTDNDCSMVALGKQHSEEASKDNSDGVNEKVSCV
The compound `COc1cccc(C(=O)Nc2ccc(OCCN3CCCC3)c(-c3c(C)ncnc3C)c2)c1` [Compound 273, N-(3-(4,6-dimethylpyrimidin-5-yl)-4-(2-(pyrrolidin-1-yl)ethoxy)phenyl)-3-methoxybenzamide] came in with an IC50 of 1.68 nM.

Take `Cc1ncsc1C(=O)Nc1ccc(OCCN2CCC2)c(-c2c(C)ncnc2C)c1` [Compound 306, N-(4-(2-(azetidin-1-yl)ethoxy)-3-(4,6-dimethylpyrimidin-5-yl)phenyl)-4-methylthiazole-5-carboxamide]: the IC50 is 6.14 nM.

`Cc1ncnc(C)c1-c1cc(NC(=O)Cc2cccc(F)c2)ccc1OCCN1CCC1` [Compound 312, N-(4-(2-(azetidin-1-yl)ethoxy)-3-(4,6-dimethylpyrimidin-5-yl)phenyl)-2-(3-fluorophenyl)acetamide] had an IC50 of 2.38 nM.

A further assay deals with T1, 5-HT2A. Briefly: Radioligand binding assay, [^3H]5-HT competition, 5-HT2A. Conditions: [^3H]5-HT radioligand, membranes of HEK293 cells expressing recombinant 5-HT2A; Ki from IC50 by Cheng-Prusoff; read-out: 5-HT2A serotonin binding Ki value.
For `COc1cccc(C(=O)Nc2ccc(OCCN3CCCC3)c(-c3c(C)ncnc3C)c2)c1` [Compound 273, N-(3-(4,6-dimethylpyrimidin-5-yl)-4-(2-(pyrrolidin-1-yl)ethoxy)phenyl)-3-methoxybenzamide], the Ki worked out at 1.11 nM.

In the case of `Cc1ncsc1C(=O)Nc1ccc(OCCN2CCC2)c(-c2c(C)ncnc2C)c1` [Compound 306, N-(4-(2-(azetidin-1-yl)ethoxy)-3-(4,6-dimethylpyrimidin-5-yl)phenyl)-4-methylthiazole-5-carboxamide], the Ki stood at 2.65 nM.

On to `Cc1ncnc(C)c1-c1cc(NC(=O)Cc2cccc(F)c2)ccc1OCCN1CCC1` [Compound 312, N-(4-(2-(azetidin-1-yl)ethoxy)-3-(4,6-dimethylpyrimidin-5-yl)phenyl)-2-(3-fluorophenyl)acetamide], for which the inhibition constant (Ki) amounted to 0.813 nM.

Turning to `Cc1ncnc(C)c1-c1cc(NC(=O)c2cccn2C)ccc1O[C@@H]1CCCNC1` [Compound 416, (R)—N-(3-(4,6-dimethylpyrimidin-5-yl)-4-(piperidin-3-yloxy)phenyl)-1-methyl-1H-pyrrole-2-carboxamide], the Ki worked out at 45.3 nM.

On to `Cc1ncnc(C)c1-c1cc(NC(=O)c2ccnn2C)ccc1O[C@@H]1CCCNC1` [Compound 417, (R)—N-(3-(4,6-dimethylpyrimidin-5-yl)-4-(piperidin-3-yloxy)phenyl)-1-methyl-1H-pyrazole-5-carboxamide], for which the Ki amounted to 40.3 nM.

Regarding `Cc1ncnc(C)c1-c1cc(NC(=O)C2CC2)ccc1O[C@@H]1CCCNC1` [Compound 418, (R)—N-(3-(4,6-dimethylpyrimidin-5-yl)-4-(piperidin-3-yloxy)phenyl)cyclopropanecarboxamide], the Ki came out at 7.29 nM.

For the compound `Cc1ncnc(C)c1-c1cc(NC(=O)C2CC2)ccc1O[C@H]1CCCNC1` [Compound 419, (S)—N-(3-(4,6-dimethylpyrimidin-5-yl)-4-(piperidin-3-yloxy)phenyl)cyclopropanecarboxamide], the Ki was 443 nM.

As for `Cc1ncnc(C)c1-c1cc(NC(=O)C2CC2)ccc1OC[C@@H]1CCCCN1` [Compound 420, N-[3-(4,6-dimethylpyrimidin-5-yl)-4-[[(2S)-2-piperidyl]methoxy]phenyl]cyclopropanecarboxamide], the Ki amounted to 92.7 nM.

For `Cc1ncnc(C)c1-c1cc(NC(=O)C2CC2)ccc1OC[C@H]1CCCCN1` [Compound 421], the Ki came out at 9.41 nM.

As for `Cc1ncnc(C)c1-c1cc(NC(=O)[C@@H]2C[C@H]2F)ccc1OC[C@H]1CCCCN1` [Compound 422, (1S,2R)—N-[3-(4,6-dimethylpyrimidin-5-yl)-4-[[(2R)-2-piperidyl]methoxy]phenyl]-2-fluoro-cyclopropanecarboxamide], the inhibitory constant (Ki) is 4.58 nM.

For the compound `Cc1ncnc(C)c1-c1cc(NC(=O)[C@H]2C[C@H]2F)ccc1OC[C@H]1CCCCN1` [Compound 423, (1R,2R)—N-(3-(4,6-dimethylpyrimidin-5-yl)-4-(((R)-piperidin-2-yl)methoxy)phenyl)-2-fluorocyclopropane-1-carboxamide], the Ki was 16.2 nM.

As for `Cc1ncnc(C)c1-c1cc(NC(=O)[C@@H]2C[C@@H]2F)ccc1OC[C@H]1CCCCN1` [Compound 424, (1S,2S)—N-(3-(4,6-dimethylpyrimidin-5-yl)-4-(((R)-piperidin-2-yl)methoxy)phenyl)-2-fluorocyclopropane-1-carboxamide], the Ki came out at 12.5 nM.

In the case of `Cc1ncsc1C(=O)Nc1ccc(OC[C@H]2CCCCN2)c(-c2c(C)ncnc2C)c1` [Compound 425, (R)—N-(3-(4,6-dimethylpyrimidin-5-yl)-4-(piperidin-2-ylmethoxy)phenyl)-4-methylthiazole-5-carboxamide], the Ki was 43.8 nM.

On to `Cc1nc(C)c(C(=O)Nc2ccc(OC[C@H]3CCCCN3)c(-c3c(C)ncnc3C)c2)s1` [Compound 426, (R)—N-(3-(4,6-dimethylpyrimidin-5-yl)-4-(piperidin-2-ylmethoxy)phenyl)-2,4-dimethylthiazole-5-carboxamide], for which the Ki came out at 87.2 nM.

As to `Cc1cnoc1C(=O)Nc1ccc(OC[C@H]2CCCCN2)c(-c2c(C)ncnc2C)c1` [Compound 427, (R)—N-(3-(4,6-dimethylpyrimidin-5-yl)-4-(piperidin-2-ylmethoxy)phenyl)-4-methylisoxazole-5-carboxamide], the Ki amounted to 27.2 nM.

Regarding `Cc1ncoc1C(=O)Nc1ccc(OC[C@H]2CCCCN2)c(-c2c(C)ncnc2C)c1` [Compound 428, (R)—N-(3-(4,6-dimethylpyrimidin-5-yl)-4-(piperidin-2-ylmethoxy)phenyl)-4-methyloxazole-5-carboxamide], the Ki came out at 35.3 nM.

Take `Cc1ncnc(C)c1-c1cc(NC(=O)c2cnoc2)ccc1OC[C@H]1CCCCN1` [Compound 429, (R)—N-(3-(4,6-dimethylpyrimidin-5-yl)-4-(piperidin-2-ylmethoxy)phenyl)isoxazole-4-carboxamide]: the Ki turned out to be 131 nM.

Consider `Cc1nocc1C(=O)Nc1ccc(OC[C@H]2CCCCN2)c(-c2c(C)ncnc2C)c1` [Compound 430, (R)—N-(3-(4,6-dimethylpyrimidin-5-yl)-4-(piperidin-2-ylmethoxy)phenyl)-3-methylisoxazole-4-carboxamide], for which the Ki worked out at 21.6 nM.

For `Cc1ncnc(C)c1-c1cc(NC(=O)c2cnoc2C)ccc1OC[C@H]1CCCCN1` [Compound 431, (R)—N-(3-(4,6-dimethylpyrimidin-5-yl)-4-(piperidin-2-ylmethoxy)phenyl)-5-methylisoxazole-4-carboxamide], the Ki came out at 54.9 nM.

Turning to `Cc1ncnc(C)c1-c1cc(NC(=O)c2ncoc2C)ccc1OC[C@H]1CCCCN1` [Compound 432, (R)—N-(3-(4,6-dimethylpyrimidin-5-yl)-4-(piperidin-2-ylmethoxy)phenyl)-5-methyloxazole-4-carboxamide], the inhibitory constant (Ki) is 19.1 nM.

Turning to `Cc1ncnc(C)c1-c1cc(NC(=O)c2cnsc2)ccc1OC[C@H]1CCCCN1` [Compound 433, (R)—N-(3-(4,6-dimethylpyrimidin-5-yl)-4-(piperidin-2-ylmethoxy)phenyl) isothiazole-4-carboxamide], the Ki was 9.98 nM.

Regarding `Cc1nscc1C(=O)Nc1ccc(OC[C@H]2CCCCN2)c(-c2c(C)ncnc2C)c1` [Compound 434, (R)—N-(3-(4,6-dimethylpyrimidin-5-yl)-4-(piperidin-2-ylmethoxy)phenyl)-3-methylisothiazole-4-carboxamide], the Ki is 19.3 nM.

As for `Cc1ncnc(C)c1-c1cc(NC(=O)c2ccnn2C)ccc1OC[C@H]1CCCCN1` [Compound 437, N-[3-(4,6-dimethylpyrimidin-5-yl)-4-[[(2R)-2-piperidyl]methoxy]phenyl]-2-methyl-pyrazole-3-carboxamide], the Ki was 10.7 nM.

Consider `COC1(C(=O)Nc2ccc(OC[C@H]3CCCCN3)c(-c3c(C)ncnc3C)c2)CC1` [Compound 439, (R)—N-(3-(4,6-dimethylpyrimidin-5-yl)-4-(piperidin-2-ylmethoxy)phenyl)-1-methoxycyclopropane-1-carboxamide], for which the Ki turned out to be 14.6 nM.

For `Cc1ncnc(C)c1-c1cc(NC(=O)C2(O)CC2)ccc1OC[C@H]1CCCCN1` [Compound 440, (R)—N-(3-(4,6-dimethylpyrimidin-5-yl)-4-(piperidin-2-ylmethoxy)phenyl)-1-hydroxycyclopropane-1-carboxamide], the Ki came out at 65.1 nM.

For `Cc1ncnc(C)c1-c1cc(NC(=O)[C@H](F)C(C)C)ccc1OC[C@H]1CCCCN1` [Compound 442, (R)—N-(3-(4,6-dimethylpyrimidin-5-yl)-4-(((R)-piperidin-2-yl)methoxy)phenyl)-2-fluoro-3-methylbutanamide], the Ki came out at 17.1 nM.

Take `Cc1ncnc(C)c1-c1cc(NC(=O)[C@@H](F)C(C)C)ccc1OC[C@H]1CCCCN1` [Compound 443, (S)—N-(3-(4,6-dimethylpyrimidin-5-yl)-4-(((R)-piperidin-2-yl)methoxy)phenyl)-2-fluoro-3-methylbutanamide]: the Ki was found to be 18.8 nM.

On to `Cc1ncnc(C)c1-c1cc(NC(=O)C2(F)CCOCC2)ccc1OC[C@H]1CCCCN1` [Compound 445, (R)—N-(3-(4,6-dimethylpyrimidin-5-yl)-4-(piperidin-2-ylmethoxy)phenyl)-4-fluorotetrahydro-2H-pyran-4-carboxamide], for which the Ki was 63.3 nM.

With `Cc1ncnc(C)c1-c1cc(NC(=O)c2ccccc2)ccc1OC[C@H]1CCCCN1` [Compound 448, (R)—N-(3-(4,6-dimethylpyrimidin-5-yl)-4-(piperidin-2-ylmethoxy)phenyl)benzamide], the Ki is 1.7 nM.

For the compound `Cc1ncnc(C)c1-c1cc(NC(=O)c2cccc(F)c2)ccc1OC[C@H]1CCCCN1` [Compound 449, (R)—N-(3-(4,6-dimethylpyrimidin-5-yl)-4-(piperidin-2-ylmethoxy)phenyl)-3-fluorobenzamide], the Ki came to 6.49 nM.

Take `COc1cccc(C(=O)Nc2ccc(OC[C@H]3CCCCN3)c(-c3c(C)ncnc3C)c2)c1` [Compound 450, (R)—N-(3-(4,6-dimethylpyrimidin-5-yl)-4-(piperidin-2-ylmethoxy)phenyl)-3-methoxybenzamide]: the inhibitory constant (Ki) was determined as 1.03 nM.

For the compound `CC(=N)NCCOc1ccc(NC(=O)C2CC2)cc1-c1c(C)ncnc1C` [Compound 451, N-(4-(2-acetimidamidoethoxy)-3-(4,6-dimethylpyrimidin-5-yl)phenyl)cyclopropanecarboxamide], the Ki was found to be 52.6 nM.

For `Cc1ncnc(C)c1-c1cc(NC(=O)C2(F)CC2)ccc1O[C@@H]1CCCNC1` [Compound 452, (R)—N-(3-(4,6-dimethylpyrimidin-5-yl)-4-(piperidin-3-yloxy)phenyl)-1-fluorocyclopropane-1-carboxamide], the Ki came out at 15 nM.

For the next assay, the target named is 5-HT2C (Homo sapiens (Human), UniProt P28335). Briefly: HTRF IP-One antagonist assay, 5-HT2C.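 Note: clonal HEK293 line with low 5-HT2C density (10–20 fmol/mg), HTRF detection of IP-One, 10-point dose curves from 10 µM in 5-fold steps, triplicate points.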 Conditions: HEK293 cells stably expressing receptor, inositol phosphate accumulation, 80 nM 5-HT in Assay Buffer. In kind it is cell-based. For orientation: TR-FRET usually uses a lanthanide donor and a delayed reading to cut background.
Sequence of 5-HT2C (P28335 33-458): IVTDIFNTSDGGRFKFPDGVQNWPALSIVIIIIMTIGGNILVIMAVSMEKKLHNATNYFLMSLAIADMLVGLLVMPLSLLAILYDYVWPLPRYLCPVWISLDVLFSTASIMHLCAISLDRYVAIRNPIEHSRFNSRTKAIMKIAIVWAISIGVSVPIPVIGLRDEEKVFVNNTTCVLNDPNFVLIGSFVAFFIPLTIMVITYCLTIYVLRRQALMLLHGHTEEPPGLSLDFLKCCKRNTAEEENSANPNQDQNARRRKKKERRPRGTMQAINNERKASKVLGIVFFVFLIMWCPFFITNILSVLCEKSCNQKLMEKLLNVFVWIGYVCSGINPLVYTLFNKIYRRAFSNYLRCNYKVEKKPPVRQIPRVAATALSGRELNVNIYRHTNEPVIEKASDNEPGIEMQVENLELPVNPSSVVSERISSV
In the case of `COc1cccc(C(=O)Nc2ccc(OCCN3CCCC3)c(-c3c(C)ncnc3C)c2)c1` [Compound 273, N-(3-(4,6-dimethylpyrimidin-5-yl)-4-(2-(pyrrolidin-1-yl)ethoxy)phenyl)-3-methoxybenzamide], the concentration for half-maximal inhibition (IC50) was determined as 100000 nM.

Regarding `Cc1ncsc1C(=O)Nc1ccc(OCCN2CCC2)c(-c2c(C)ncnc2C)c1` [Compound 306, N-(4-(2-(azetidin-1-yl)ethoxy)-3-(4,6-dimethylpyrimidin-5-yl)phenyl)-4-methylthiazole-5-carboxamide], half-maximal inhibition (IC50) was put at 100000 nM.

`Cc1ncnc(C)c1-c1cc(NC(=O)Cc2cccc(F)c2)ccc1OCCN1CCC1` [Compound 312, N-(4-(2-(azetidin-1-yl)ethoxy)-3-(4,6-dimethylpyrimidin-5-yl)phenyl)-2-(3-fluorophenyl)acetamide] came in with a half-maximal inhibitory concentration (IC50) of 100000 nM.
